Reference: ChEMBL document CHEMBL1201862, “PubChem BioAssay data set” (2004)
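1) Cells in 96-well plates. 2) Compound, 48 h, 5 concentrations. 3) Linear interpolation between surrounding doses. 4) Unreached endpoint = highest concentration. GI50 marks 50% less growth.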 Activity calls are given as the source filed them. No stated cut-off is given here; in the data, active = GI50 up to about 1.1 µM and inactive = higher.

Assays:
Assay in all cases: NCI tumour cell line growth inhibition, 48 h
[1] = system: OVCAR-5
[2] = system: T47D
[3] = system: HOP-92
[4] = system: A549
[5] = system: CAKI-1
[6] = system: SR
[7] = system: A498
[8] = system: UO-31
[9] = system: KM12
[10] = system: Hs-578T
[11] = system: SNB-19
[12] = system: NCI-H23
[13] = system: SK-MEL-28
[14] = system: SF-295
[15] = system: HCT-15
[16] = system: OVCAR-3
[17] = system: MCF7
[18] = system: HL-60
[19] = system: K562
[20] = system: NCI-H226
[21] = system: PC-3
[22] = system: SF-268
[23] = system: NCI/ADR-RES
[24] = system: SK-MEL-5
[25] = system: 786-0
[26] = system: COLO 205
[27] = system: LOX IMVI
[28] = system: UACC-62
[29] = system: OVCAR-4
[30] = system: HOP-62
[31] = system: SN12C
[32] = system: U-251
[33] = system: CCRF-CEM
[34] = system: SK-OV-3
[35] = system: MDA-MB-231
[36] = system: SNB-75
[37] = system: MDA-MB-435
[38] = system: DU-145
[39] = system: NCI-H460
[40] = system: HT-29
[41] = system: RPMI-8226
[42] = system: RXF 393
[43] = system: OVCAR-8
[44] = system: HCC 2998
[45] = system: EKVX
[46] = system: SW-620
[47] = system: HCT-116
[48] = system: MDA-N
[49] = system: TK-10
[50] = system: UACC-257
[51] = system: SK-MEL-2
[52] = system: ACHN
[53] = system: M14
[54] = system: SF-539
[55] = system: NCI-H522
[56] = system: MOLT-4
[57] = system: IGROV-1
[58] = system: Malme-3M
[59] = system: BT-549

C=CCOC(OCC=C)/C(Br)=C/C
GI50 [1]: 49.5 µM (inactive) | GI50 [2]: 31.8 µM (inactive) | GI50 [3]: 56.5 µM (inactive) | GI50 [4]: > 100 µM (inactive) | GI50 [5]: 16.7 µM (inactive) | GI50 [6]: > 100 µM (inactive) | GI50 [7]: > 100 µM (inactive) | GI50 [8]: 34.9 µM (inactive) | GI50 [9]: > 100 µM (inactive) | GI50 [10]: 26.8 µM (inactive) | GI50 [11]: > 100 µM (inactive) | GI50 [12]: 31 µM (inactive) | GI50 [13]: > 100 µM (inactive) | GI50 [14]: > 100 µM (inactive) | GI50 [15]: 24 µM | GI50 [16]: 47.1 µM (inactive) | GI50 [17]: 28.3 µM (inactive) | GI50 [18]: 41 µM (inactive) | GI50 [19]: > 100 µM (inactive) | GI50 [20]: > 100 µM (inactive) | GI50 [21]: 93.1 µM (inactive) | GI50 [22]: 28.8 µM (inactive) | GI50 [23]: 31 µM (inactive) | GI50 [24]: 37 µM (inactive) | GI50 [25]: 11.2 µM (inactive) | GI50 [26]: 19.2 µM (inactive) | GI50 [27]: 16.5 µM (inactive) | GI50 [28]: 64.4 µM (inactive) | GI50 [29]: 24.5 µM (inactive) | GI50 [30]: > 100 µM (inactive) | GI50 [31]: > 100 µM (inactive) | GI50 [32]: 59.2 µM (inactive) | GI50 [33]: 10.3 µM (inactive) | GI50 [34]: > 100 µM (inactive) | GI50 [35]: > 100 µM (inactive) | GI50 [36]: > 100 µM (inactive) | GI50 [37]: 26.9 µM (inactive) | GI50 [38]: 55.2 µM (inactive) | GI50 [39]: 67.3 µM (inactive) | GI50 [40]: 20.2 µM (inactive) | GI50 [41]: > 100 µM (inactive) | GI50 [42]: 29.2 µM (inactive) | GI50 [43]: 17.7 µM (inactive) | GI50 [44]: 80.9 µM (inactive) | GI50 [45]: 35.9 µM (inactive) | GI50 [46]: 37.5 µM (inactive) | GI50 [47]: 13.5 µM (inactive) | GI50 [48]: 37 µM (inactive) | GI50 [49]: > 100 µM (inactive) | GI50 [50]: > 100 µM (inactive) | GI50 [51]: 68.2 µM (inactive) | GI50 [52]: 17.6 µM (inactive) | GI50 [53]: 32.1 µM (inactive)

COC(=O)C1CCCCCCCCCCC12SCCCS2 (stereo unspecified)
GI50 [1]: 16.8 µM (inactive) | GI50 [2]: 35.7 µM (inactive) | GI50 [3]: 19.4 µM (inactive) | GI50 [4]: 17.4 µM (inactive) | GI50 [5]: 26.3 µM (inactive) | GI50 [6]: 11.5 µM (inactive) | GI50 [7]: 29.5 µM (inactive) | GI50 [8]: 18.9 µM (inactive) | GI50 [9]: 18.1 µM (inactive) | GI50 [10]: 30.4 µM (inactive) | GI50 [54]: 25.3 µM (inactive) | GI50 [11]: 18.2 µM (inactive) | GI50 [12]: 34.8 µM (inactive) | GI50 [13]: 18.4 µM (inactive) | GI50 [55]: 17.2 µM (inactive) | GI50 [14]: 16.5 µM (inactive) | GI50 [15]: 26.7 µM | GI50 [16]: 18.4 µM (inactive) | GI50 [17]: 43.9 µM (inactive) | GI50 [19]: 24.5 µM (inactive) | GI50 [20]: 18.6 µM (inactive) | GI50 [21]: 17.5 µM (inactive) | GI50 [22]: 23 µM (inactive) | GI50 [23]: 20.7 µM (inactive) | GI50 [24]: 18.7 µM (inactive) | GI50 [25]: 14.6 µM (inactive) | GI50 [26]: 18.6 µM (inactive) | GI50 [56]: 15.8 µM (inactive) | GI50 [27]: 18.3 µM (inactive) | GI50 [28]: 25.6 µM (inactive) | GI50 [29]: 16.5 µM (inactive) | GI50 [30]: 21.2 µM (inactive) | GI50 [31]: 16.9 µM (inactive) | GI50 [32]: 17.3 µM (inactive) | GI50 [33]: 23 µM (inactive) | GI50 [34]: 49.5 µM (inactive) | GI50 [35]: 21.7 µM (inactive) | GI50 [36]: 19.1 µM (inactive) | GI50 [37]: 16.4 µM (inactive) | GI50 [38]: 16.7 µM (inactive) | GI50 [57]: 17.7 µM (inactive) | GI50 [39]: 37.2 µM (inactive) | GI50 [40]: 32.8 µM (inactive) | GI50 [42]: 19 µM (inactive) | GI50 [43]: 23.4 µM (inactive) | GI50 [44]: 20.9 µM (inactive) | GI50 [45]: 19.4 µM (inactive) | GI50 [46]: 27.2 µM (inactive) | GI50 [47]: 16.3 µM (inactive) | GI50 [58]: 20.3 µM (inactive) | GI50 [48]: 30.8 µM (inactive) | GI50 [49]: 20.1 µM (inactive) | GI50 [50]: 17.5 µM (inactive) | GI50 [51]: 18.6 µM (inactive) | GI50 [52]: 19 µM (inactive) | GI50 [53]: 15.5 µM (inactive)

Clc1ccc(Cl)c(/N=N/c2cc3c4c(c2)CCCN4CCC3)c1
GI50 [2]: > 10 µM (inactive) | GI50 [3]: > 10 µM (inactive) | GI50 [4]: > 10 µM (inactive) | GI50 [5]: > 10 µM (inactive) | GI50 [6]: > 10 µM (inactive) | GI50 [7]: > 10 µM (inactive) | GI50 [8]: > 10 µM (inactive) | GI50 [9]: > 10 µM (inactive) | GI50 [10]: > 10 µM (inactive) | GI50 [54]: > 10 µM (inactive) | GI50 [11]: > 10 µM (inactive) | GI50 [12]: > 10 µM (inactive) | GI50 [13]: > 10 µM (inactive) | GI50 [55]: > 10 µM (inactive) | GI50 [14]: > 10 µM (inactive) | GI50 [15]: > 10 µM | GI50 [16]: > 10 µM (inactive) | GI50 [17]: > 10 µM (inactive) | GI50 [18]: 5 µM (inactive) | GI50 [19]: > 10 µM (inactive) | GI50 [20]: > 10 µM (inactive) | GI50 [21]: > 10 µM (inactive) | GI50 [22]: > 10 µM (inactive) | GI50 [23]: > 10 µM (inactive) | GI50 [24]: > 10 µM (inactive) | GI50 [25]: > 10 µM (inactive) | GI50 [26]: > 10 µM (inactive) | GI50 [56]: > 10 µM (inactive) | GI50 [27]: > 10 µM (inactive) | GI50 [28]: > 10 µM (inactive) | GI50 [29]: > 10 µM (inactive) | GI50 [30]: > 10 µM (inactive) | GI50 [31]: > 10 µM (inactive) | GI50 [32]: > 10 µM (inactive) | GI50 [33]: > 10 µM (inactive) | GI50 [34]: > 10 µM (inactive) | GI50 [35]: > 10 µM (inactive) | GI50 [36]: > 10 µM (inactive) | GI50 [37]: > 10 µM (inactive) | GI50 [38]: > 10 µM (inactive) | GI50 [57]: > 10 µM (inactive) | GI50 [39]: > 10 µM (inactive) | GI50 [40]: > 10 µM (inactive) | GI50 [41]: > 10 µM (inactive) | GI50 [42]: > 10 µM (inactive) | GI50 [43]: > 10 µM (inactive) | GI50 [44]: > 10 µM (inactive) | GI50 [45]: > 10 µM (inactive) | GI50 [46]: > 10 µM (inactive) | GI50 [47]: > 10 µM (inactive) | GI50 [58]: > 10 µM (inactive) | GI50 [48]: > 10 µM (inactive) | GI50 [49]: > 10 µM (inactive) | GI50 [50]: > 10 µM (inactive) | GI50 [51]: > 10 µM (inactive) | GI50 [52]: > 10 µM (inactive) | GI50 [53]: > 10 µM (inactive)

NC1CCC[C@@H](O)[C@H]1O (stereo partly specified)
GI50 [8]: 76.7 µM (inactive) | GI50 [54]: > 100 µM (inactive) | GI50 [11]: > 100 µM (inactive) | GI50 [55]: > 100 µM (inactive) | GI50 [20]: > 100 µM (inactive) | GI50 [26]: > 100 µM (inactive) | GI50 [33]: > 100 µM (inactive) | GI50 [57]: > 100 µM (inactive) | GI50 [59]: > 100 µM (inactive) | GI50 [58]: > 100 µM (inactive)
